Values quoted from earlier work in patent US8221746B2, “Antioxidant for use in cosmetic, medicated and pharmaceutical preparations” (priority 2008, dated 2012).

Assays:
[1] = system: photodamage of facial skin; conditions: topical, 3 months
[2] = system: photoaging of the face; conditions: topical, 12 weeks, vs placebo gel

For `O=C1O[C@H]([C@@H](O)CO)C(O)=C1O` [vitamin C], the “patient questionnaire overall improvement greater than control” value [1] is listed as 84.2%, the “photographic assessment improvement greater than the improvement in the control group” value [1] is listed as 57.9% and the “combined score improvement, optical image analysis of skin surface” value ([1]; compared to placebo-vehicle side of face) is listed as 71%. The “clinical improvement in wrinkling (in words)” value [2] was “clinically visible and statistically significant improvement in wrinkling”.
